Laboratory results taken from PubChem BioAssay (NCI).
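Each compound was tested at five concentrations against cells in 96-well plates for 48 hours. GI50 is the concentration that inhibits growth by half. TGI: total growth inhibition.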

What was measured:
Assay in all cases: DTP human tumour cell line panel, 48 h
UACC-62 melanoma = system: UACC-62 melanoma
OVCAR-5 ovarian = system: OVCAR-5 ovarian
SNB-75 CNS = system: SNB-75 CNS
HL-60(TB) leukemia = system: HL-60(TB) leukemia
MCF7 breast = system: MCF7 breast
HT29 colon = system: HT29 colon
MOLT-4 leukemia = system: MOLT-4 leukemia
SK-MEL-2 melanoma = system: SK-MEL-2 melanoma
OVCAR-8 ovarian = system: OVCAR-8 ovarian
CCRF-CEM leukemia = system: CCRF-CEM leukemia

SMILES	TGI (UACC-62 melanoma) [µM]	TGI (OVCAR-5 ovarian) [µM]	TGI (SNB-75 CNS) [µM]	TGI (HL-60(TB) leukemia) [µM]	TGI (MCF7 breast) [µM]	TGI (HT29 colon) [µM]	TGI (MOLT-4 leukemia) [µM]	TGI (SK-MEL-2 melanoma) [µM]	TGI (OVCAR-8 ovarian) [µM]	TGI (CCRF-CEM leukemia) [µM]	GI50 (CCRF-CEM leukemia) [µM]	GI50 (UACC-62 melanoma) [µM]	GI50 (OVCAR-5 ovarian) [µM]	GI50 (SNB-75 CNS) [µM]	GI50 (HL-60(TB) leukemia) [µM]	GI50 (MCF7 breast) [µM]	GI50 (HT29 colon) [µM]	GI50 (MOLT-4 leukemia) [µM]	GI50 (SK-MEL-2 melanoma) [µM]	GI50 (OVCAR-8 ovarian) [µM]
O=C1C=CC(=O)c2c1nc(CBr)[nH]c2=O	> 100	> 100	> 100	55	> 100	> 100	> 100	> 100	> 100											
C=CCSC(C)=O	> 100	> 100	> 100	> 100	> 100	> 100		> 100	> 100	> 100										
COc1ccc(-c2c(-c3ccc(C#N)c(F)c3)nc(N3CCC(N)CC3)n(C)c2=O)cc1F	32.9	44.2	27.7	29.1	34	30.2	46.2	38.6	> 100	53	17.6	16.1	14.4	10.9	10.8	14.4	10.4	15.5	18.5	33.6
CN(C)c1ccc2[nH]c3c(C(N)=O)cc(=O)c(=O)c=3oc2c1	5.32	17.2	9.19	4.04	8.64	> 100	8.53	5.34	> 100	> 100	0.472	1.74	3.36	2.5	0.668	1.64	3.66	0.861	1.87	1.05
CCOCCOCCOCCOCCOCCOCCOCCOCCOCCO (tested in a mixture with another compound)			5.34	1.59	4.58	4.36	1.69	3.81	4.36	> 32.5	1.06			0.728	0.649	1.04	1.16	0.628	1.2	0.871
CCS(=O)(=O)c1ccc(OC)c(Nc2ncc(-c3cccc(F)c3)o2)c1	> 25	> 25	> 25	> 25	> 25	> 25	> 25	> 25	> 25	> 25	> 25	> 25	> 25	> 10.6	> 25	> 25	> 25	> 25	> 25	> 25
COc1ccc2c(c1)C(=O)c1c-2n(CCCN(C)C)c(=O)c2cc([N+](=O)[O-])ccc12	< 0.01	0.394	2.74	0.245	0.338	0.61	0.282	7.17	3.75	< 0.01	< 0.01	< 0.01	0.0235	< 0.01	< 0.01	< 0.01	< 0.01	< 0.01	0.545	< 0.011
COc1cc(C2NC(=O)C(C#N)=C(Nc3cccc(C)c3)S2)ccc1O (stereo unspecified)	> 100	> 100	> 100	> 100	> 100	> 100	> 100	> 100	> 100	> 100	> 100	> 100	> 100	> 100	> 100	> 100	> 100	> 100	> 100	> 100
O=C1Cc2cc(CCN3CCNCC3)c(Cl)cc2N1	> 100	> 100	75.4	> 100	> 100	> 100	> 100	> 100	> 100	> 100	2.98	6.54	79.2	15.5	43	3.65	> 100	> 100	15.2	36.8
CSc1nc(SC)c2c(C)cn(COCCOC(=O)c3ccccc3)c2n1	> 100	> 100	> 100	> 100	> 100	> 100	> 100	> 100	> 100	> 100										
COc1ccc(/C=C/c2ccnc3ccccc23)cc1OC	29.4	27.6		25.5	21.6	27.4	45.1	39		31										
Fc1ccc(Nc2nc(Nc3ccc(-c4nc5ccccc5[nH]4)cc3)c3cn[nH]c3n2)cc1		7.62	3.57	6.92	4.12	4	5.63	4.95	5.37	6.9	2.63		2.66	1.35	2.96	1.74	1.93	2.55	2.11	2.37
CC1(C)C(=O)/C=C\C(=O)C(C)(C)C(=O)/C=C\C(=O)C(C)(C)C2=CC=C(O2)C(C)(C)C(=O)/C=C\C1=O	15.7	37.1	20.2	2.24	39.8	8.45	4.81	25.5	11.6											
CSc1ccc(C(=O)/C=C/c2ccc(Cl)cc2Cl)cc1	78.5	52.2		38.2	19.8		33.9	59.3	43.4			24.3	21.6		18.4	3.68		16.4	17.6	20.3
CC1=C[C@@H]2c3c(c(O)c(O)c4oc5cc(O)cc(O)c5c(=O)c34)[C@@H](c3cc(O)c(O)c4oc5cc(O)cc(O)c5c(=O)c34)[C@@H]2C(C)(C)C1	5.72	18.2	20.5	27.4	11	14.8	19.5	21	18.8			1.88	7.83	6.34	4.87	1.89	3.86	3.38	5.99	4.31
Cc1c(-c2ccccn2)ccc2ccccc12	> 100	> 100	> 100	> 100	> 100	> 100	> 100		> 100	> 100										
COc1ccc2c(c1)-c1c(c3cc(OC)ccc3n(CCN(C)C)c1=O)C2=O	9.73	12.7	7.49	5.97	5.3	1.2	0.953		5.59	1.76	0.199	3.11	3.14	1.36	1.38	0.221	0.24	0.174		0.31
C=C(C)C(=O)Nc1ccc(-c2c(-c3ccc(Oc4nccc(C)n4)c(F)c3)c3c(N)ncnc3n2C)cc1		20.9	7.32	> 100	16.1	14.2	> 100	9.74	19.2	> 100	5.25		4.43	1.18	4.74	3.55	3.22	2.78	2.7	4.49
N#CC1=C(N)OC2=C(CCOc3c2ccc2ccccc32)C1c1ccc(Br)cc1 (stereo unspecified)	> 100	> 100		37.6	94.2	> 100	49		> 100	54.2	16.8	48.1	96.3		17	20.9	36.7	11.3		77.5
CC1=C(C(=O)Nc2ccc(Cl)c(Cl)c2)C(c2cccc(Cl)c2)NC(=S)N1 (stereo unspecified)	18.1		> 50	45.5	> 50	> 50	> 50	27.1	31.7	> 50	30.5	8.1		30.4	16.5	> 50	16.1	23.2	14.5	12.4
CN(CCCCCl)P(=O)(OCc1ccc([N+](=O)[O-])o1)OCC1OC(n2cc([N+](=O)[O-])c(=O)[nH]c2=O)CC1O (stereo unspecified)	> 100	> 100		> 100	> 100	> 100	> 100	> 100	> 100	> 100	66.8	49.2	> 100		> 100	22.8	> 100	25.1	> 100	41.6
COc1cnccc1Nc1nc(-c2nn(Cc3c(F)cc(OCCO)cc3F)c3ccccc23)ncc1OC		24.5	18.4	> 100	6.16	16.4	> 100	27	5.82	> 100	0.946		5.13	3.76	1.42	1.65	2.87	1.55	11	2.03
